The results in this text go back to ChEMBL document CHEMBL1156044, “Novel pyridine derivatives as potent and selective CB2 cannabinoid receptor agonists” (Bioorg Med Chem Lett, 2009).

For orientation: inhibition means the relative decrease from the control value, in per cent. What is called Ki is a measure of affinity in units of concentration, obtained from inhibition or displacement. A word on the EC50: it is the concentration that produces a half-maximal response. The clearance is a measure of how efficiently the substance is removed, as volume per time. For orientation: half-life means the time needed for the level to fall by half in the phase considered. As usually defined, the Tmax is the time at which the peak concentration occurs. Broadly, the AUC is the area under the concentration-time curve, a measure of exposure. Broadly, the Cmax is the peak of the concentration-time curve. One may read the AUC(0-inf) as total exposure, with the tail of the curve extrapolated. One may read the bioavailability as dose-corrected exposure relative to a reference, in per cent.

The structures appear in SMILES notation.

A short description of data set [1]: Metabolic stability in rat liver microsomes assessed as compound remaining at […] after 30 mins. Format: ADME, Microsome. The settings on record: read-out: Stability. On the technique in general: Liver microsomes are a subcellular fraction often used to study metabolism.
The target in data set [2] is T1, Cannabinoid receptor 1 (Homo sapiens, UniProt P21554). Description: Inhibition of [3H][…] binding to human cloned CB1 receptor at 10 uM after 120 mins by scintillation spectroscopy.
Data set [3] concerns the target T1, Cannabinoid receptor 1. Description: Displacement of [3H][…] from human cloned CB1 receptor after 120 mins by scintillation spectroscopy.
Data set [4] has as its target T2, Cannabinoid receptor 2 (Homo sapiens, UniProt P34972). Description: Displacement of [3H][…] from human cloned CB2 receptor after 60 mins by scintillation spectroscopy. For orientation: In a radioligand displacement assay an active substance lowers the binding of a labelled ligand.
The nature of data set [5]: Metabolic stability in human liver microsomes assessed as compound remaining at […] after 30 mins. Format: ADME, Microsome. The conditions noted are these: read-out: Stability.
The species entered for a further data set is Homo sapiens. Description: Selectivity ratio of Ki for human cloned CB1 receptor to Ki for human cloned CB2 receptor.
The target of data set [6] is T3, Cannabinoid receptor 2 (Rattus norvegicus, UniProt Q9QZN9).
T3 sequence (Q9QZN9 whole entry): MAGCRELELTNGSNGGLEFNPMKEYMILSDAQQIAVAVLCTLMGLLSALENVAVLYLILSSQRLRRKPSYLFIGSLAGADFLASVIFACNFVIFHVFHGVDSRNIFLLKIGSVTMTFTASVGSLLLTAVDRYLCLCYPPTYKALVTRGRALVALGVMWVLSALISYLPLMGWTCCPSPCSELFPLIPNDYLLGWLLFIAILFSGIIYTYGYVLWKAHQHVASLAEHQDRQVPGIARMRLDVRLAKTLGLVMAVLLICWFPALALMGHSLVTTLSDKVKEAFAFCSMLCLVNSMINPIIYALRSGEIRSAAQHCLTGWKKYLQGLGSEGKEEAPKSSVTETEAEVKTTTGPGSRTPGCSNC
Description: Agonist activity at CB2 receptor in rat cerebellar membrane assessed as WIN-55212-2-stimulated [35S]GTPgammaS binding after 6 hrs by scintillation spectrometry. The format is functional, cell membranes, Cerebellum.

Data set [7] in a line: Systemic plasma clearance in Beagle dog at 1 mg/kg, iv administered as single dose. The format is ADME, organism-based, Canis lupus familiaris. Further details: dose 1 mg/kg, route intravenous.
Data set [8] in a line: Half life in Sprague-Dawley rat at 10 mg/kg, po administered as single dose. The format is ADME, organism-based. On the set-up: dose 10 mg/kg, route oral. The settings on record: in vivo.
Data set [9] is described as follows: Half life in Sprague-Dawley rat at 1 mg/kg, iv administered as single dose. On the set-up: dose 1 mg/kg, route intravenous. The format is ADME, organism-based. The conditions noted are these: in vivo.
Data set [10] is described as follows: Systemic plasma clearance in Sprague-Dawley rat at 1 mg/kg, iv administered as single dose. The format is ADME, organism-based. Further details: dose 1 mg/kg, route intravenous.
Data set [11] can be described thus: Tmax in Beagle dog at 10 mg/kg, po administered as single dose. The conditions noted are these: in vivo. Further details: dose 10 mg/kg, route oral. The format is ADME, organism-based, Canis lupus familiaris.
Data set [12] has as its system Canis familiaris. Description: Area under curve (0 to infinity) in Beagle dog at 1 mg/kg, iv administered as single dose. Further details: time infinity, dose 1 mg/kg, route intravenous. The format is ADME, organism-based, Canis lupus familiaris. The conditions noted are these: in vivo.
Data set [13] is described as follows: Volume of distribution at steady state in Beagle dog at 1 mg/kg, iv administered as single dose. The format is ADME, organism-based, Canis lupus familiaris. Further details: dose 1 mg/kg, route intravenous. The conditions noted are these: in vivo, read-out: Vdss.
A short description of data set [14]: Cmax in Beagle dog at 10 mg/kg, po administered as single dose. Format: ADME, organism-based, Canis lupus familiaris. On the set-up: dose 10 mg/kg, route oral. The conditions noted are these: in vivo.
The test system of data set [15] is Canis familiaris. In words: AUC (0 to infinity) in Beagle dog at 10 mg/kg, po administered as single dose. The format is ADME, organism-based, Canis lupus familiaris, Plasma. On the set-up: time infinity, dose 10 mg/kg, route oral. The settings on record: in vivo.
Data set [16] can be described thus: Half life in Beagle dog at 10 mg/kg, po administered as single dose. The settings on record: in vivo. Further details: dose 10 mg/kg, route oral. Format: ADME, organism-based, Canis lupus familiaris.
The nature of data set [17]: Half life in Beagle dog at 1 mg/kg, iv administered as single dose. Further details: dose 1 mg/kg, route intravenous. The settings on record: in vivo. The format is ADME, organism-based, Canis lupus familiaris.
Data set [18] is described as follows: AUC (0 to infinity) in Sprague-Dawley rat at 10 mg/kg, po administered as single dose. The format is ADME, organism-based. Further details: time infinity, dose 10 mg/kg, route oral. The settings on record: plasma.
A short description of data set [19]: AUC (0 to infinity) in Sprague-Dawley rat at 1 mg/kg, iv administered as single dose. Further details: time infinity, dose 1 mg/kg, route intravenous. The format is ADME, organism-based. The conditions noted are these: plasma.
Data set [20] can be described thus: Volume of distribution at steady state in Sprague-Dawley rat at 1 mg/kg, iv administered as single dose. The settings on record: in vivo, read-out: Vdss. Further details: dose 1 mg/kg, route intravenous. Format: ADME, organism-based.
Data set [21] in a line: Oral bioavailability in Sprague-Dawley rat at 10 mg/kg administered as single dose. The format is ADME, organism-based. The conditions noted are these: in vivo.
The nature of data set [22]: Cmax in Sprague-Dawley rat at 10 mg/kg, po administered as single dose. The format is ADME, organism-based. On the set-up: dose 10 mg/kg, route oral. The settings on record: in vivo.
Data set [23] can be described thus: Tmax in Sprague-Dawley rat at 10 mg/kg, po administered as single dose. Further details: dose 10 mg/kg, route oral. Format: ADME, organism-based. The settings on record: in vivo.
In the next data set the test system is Rattus norvegicus. In words: Antiallodynic activity against neuropathic pain in L5 spinal nerve ligated rat model assessed as reduction of allodynia at 100 mg/kg, po administered 9 days after surgery relative to control. Format: functional. Further details: scale not given: the % may be the effect or the level left.
Data set [24] concerns Canis familiaris. In words: Oral bioavailability in Beagle dog at 10 mg/kg, po administered as single dose. Format: ADME, organism-based, Canis lupus familiaris. The settings on record: in vivo.
The target in data set [25] is T2, Cannabinoid receptor 2. In words: Inhibition of [3H][…] binding to human cloned CB2 receptor at 10 uM after 60 mins by scintillation spectroscopy.

T1 sequence (P21554 whole entry): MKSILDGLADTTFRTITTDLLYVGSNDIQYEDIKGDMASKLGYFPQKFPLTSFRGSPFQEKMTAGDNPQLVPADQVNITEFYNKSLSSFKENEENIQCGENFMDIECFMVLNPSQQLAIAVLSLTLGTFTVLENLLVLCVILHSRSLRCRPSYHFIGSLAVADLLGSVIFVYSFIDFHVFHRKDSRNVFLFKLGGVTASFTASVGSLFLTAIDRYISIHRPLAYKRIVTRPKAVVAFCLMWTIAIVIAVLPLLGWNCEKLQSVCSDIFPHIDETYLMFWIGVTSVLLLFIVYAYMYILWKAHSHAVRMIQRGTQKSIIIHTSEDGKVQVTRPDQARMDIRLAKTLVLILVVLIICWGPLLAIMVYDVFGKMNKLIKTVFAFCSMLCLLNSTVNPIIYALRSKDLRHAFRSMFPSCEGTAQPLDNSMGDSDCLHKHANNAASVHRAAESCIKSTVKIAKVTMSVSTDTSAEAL
T2 sequence (P34972 whole entry): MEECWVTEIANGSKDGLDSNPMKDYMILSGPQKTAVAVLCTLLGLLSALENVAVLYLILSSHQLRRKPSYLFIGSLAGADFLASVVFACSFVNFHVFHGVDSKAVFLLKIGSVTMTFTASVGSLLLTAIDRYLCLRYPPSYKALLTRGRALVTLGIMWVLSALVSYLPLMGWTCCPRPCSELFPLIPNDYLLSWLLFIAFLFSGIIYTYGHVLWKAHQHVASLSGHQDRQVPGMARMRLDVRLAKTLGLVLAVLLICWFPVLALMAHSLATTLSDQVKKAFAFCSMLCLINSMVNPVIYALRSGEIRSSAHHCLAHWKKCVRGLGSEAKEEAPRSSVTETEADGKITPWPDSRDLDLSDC

On to `CCC(C)(C)C(=O)Nc1ccc(C)c(CN2CCOCC2)c1`, for which the remaining at 0.5 h in [1] came to 2.2%. This compound gave an inhibition on Cannabinoid receptor 1 [2] of 4%.

As for `Cc1cnc(NC(=O)C2(C)CCCCC2C)cc1CN1CCOCC1` (centres undefined), the remaining at 0.5 h in [1] is 0%; in [5], 1%. In addition, the Ki at Cannabinoid receptor 1 [3] turned out to be 2500 nM; at Cannabinoid receptor 2 [4], 1.9 nM. For the same compound, the Ratio Ki in the data set filed under Homo sapiens was determined as 1300. Also, on Cannabinoid receptor 2 [6], the EC50 is 2.8 nM.

In turn, `CCC(C)(C)C(=O)Nc1cc(CN2CCOCC2)c(C#N)cn1` gave an inhibition constant (Ki) on Cannabinoid receptor 2 [4] of 100 nM. The same compound had an inhibition on Cannabinoid receptor 1 [2] of 11%. Moreover, at Cannabinoid receptor 2 [6], the EC50 turned out to be 200 nM.

At Cannabinoid receptor 2 [4], `CCC1(C(=O)Nc2cc(CN3CCOCC3)c(C)cn2)CC1` showed a Ki of 63 nM. Moreover, the inhibition on Cannabinoid receptor 1 [2] came out at 25%. Moreover, the EC50 on Cannabinoid receptor 2 [6] is 62 nM.

Take `CCCC(C)(C)C(=O)Nc1cc(CN2CCOCC2)c(C)cn1`: the values for the Ki at Cannabinoid receptor 1 [3] and at Cannabinoid receptor 2 [4] were 1800 nM and 5.3 nM, respectively. The remaining at 0.5 h in [5] was determined as 15%. Also, in the data set listed under Homo sapiens, the Ratio Ki stood at 330. In addition, the EC50 on Cannabinoid receptor 2 [6] was found to be 4.1 nM.

On Cannabinoid receptor 2 [4], `Cc1cnc(NC(=O)C(C)(C)C)cc1CN1CCOCC1` showed a Ki of 81 nM. Besides, the inhibition on Cannabinoid receptor 1 [2] turned out to be 37%. Moreover, the EC50 at Cannabinoid receptor 2 [6] was found to be 70 nM.

`CCC(C)(C)C(=O)Nc1cc(CN2CCOCC2)c(C)cn1`: the clearance in data set [7] is 15 mL/min/kg; in data set [10] it was 96.7 mL/min/kg. Moreover, the remaining at 0.5 h was found to be 43% in data set [1] and 64% in data set [5]. The half-life is 2.1 h in [8], 0.5 h in data set [9], 1.1 h in data set [16] and 1.4 h in data set [17]. Further, the Ki on Cannabinoid receptor 1 [3] is 3800 nM; at Cannabinoid receptor 2 [4] it was 24 nM. In addition, the Tmax in data set [11] was 0.5 h; in [23], 2 h. In addition, the results for the AUC with Canis familiaris [12] and in the data set with Canis familiaris [15] were 1127 ng·h/mL and 977 ng·h/mL, respectively. Further, the Vd in data set [13] turned out to be 0.6 L/kg; in [20] it was 3.5 L/kg. Moreover, the Cmax worked out at 535 ng/mL in data set [14] and 185 ng/mL in [22]. Further, the AUC(0-inf) in data set [18] worked out at 893 ng·h/mL; in [19], 158 ng·h/mL. This compound also showed a bioavailability in data set [21] of 57%. In addition, the Activity in the data set on Rattus norvegicus is given as 271%. Moreover, the F in the data set on Canis familiaris [24] turned out to be 29%. Further, the Ratio Ki in the data set filed under Homo sapiens amounted to 160. Also, on Cannabinoid receptor 2 [6], the EC50 was determined as 41 nM.

Take `CCC(C)(C)C(=O)Nc1cnc(C)c(CN2CCOCC2)c1`: the inhibition on Cannabinoid receptor 2 [25] is 46%; at Cannabinoid receptor 1 [2], 4%.

Take `CCC1(C(=O)Nc2cc(CN3CCOCC3)c(C)cn2)CCCC1`: the Ki was 1100 nM at Cannabinoid receptor 1 [3] and 13 nM on Cannabinoid receptor 2 [4]. For the same compound, the remaining at 0.5 h in [5] is 12%. The Ratio Ki in the data set filed under Homo sapiens stood at 85. Further, the EC50 at Cannabinoid receptor 2 [6] was 13 nM.

For the compound `CCC1(C(=O)Nc2cc(CN3CCOCC3)c(C)cn2)CCCCC1`, the remaining at 0.5 h in data set [1] and in data set [5] was 0% each time. Affinity at Cannabinoid receptor 2 [4] was put at a Ki of 7 nM. In addition, at Cannabinoid receptor 1 [2], the inhibition came out at 36%. For the same compound, the EC50 on Cannabinoid receptor 2 [6] stood at 8.8 nM.

`CCC(C)(C)C(=O)Nc1ccc(C)c(CN2CCOCC2)n1`: the Ki at Cannabinoid receptor 2 [4] was determined as 1800 nM. Also, the inhibition on Cannabinoid receptor 1 [2] was determined as 28%.

`CCC(C)(C)C(=O)Nc1cc(CN2CCOCC2)c(N)cn1`: the Ki on Cannabinoid receptor 2 [4] was determined as 870 nM. At Cannabinoid receptor 1 [2], the inhibition is 10%.

Compound `CCC(C)(C)C(=O)Nc1cc(CN2CCOCC2)cc(C)n1` returned a Ki at Cannabinoid receptor 2 [4] of 67 nM. At Cannabinoid receptor 1 [2], this compound had an inhibition of 0%. At Cannabinoid receptor 2 [6], the EC50 turned out to be 260 nM.

As to `CCC(C)(C)C(=O)Nc1cc(CN2CCOCC2)c(C)cc1C`, the remaining at 0.5 h in data set [1] came out at 68%. The compound further came in with an inhibition on Cannabinoid receptor 1 [2] of 18%.

As for `CCc1cnc(NC(=O)C(C)(C)CC)cc1CN1CCOCC1`, the remaining at 0.5 h in [1] was determined as 29%; in data set [5], 34%. The Ki was 4300 nM on Cannabinoid receptor 1 [3] and 7.9 nM at Cannabinoid receptor 2 [4]. Further, in the data set filed under Homo sapiens, the Ratio Ki turned out to be 550. Besides, the EC50 on Cannabinoid receptor 2 [6] is 9.6 nM.

On to `CCC1(C(=O)Nc2cc(CN3CCOCC3)c(C)cn2)CCC1`, for which the remaining at 0.5 h in data set [1] came out at 48%; in data set [5], 51%. The compound also yielded a Ki on Cannabinoid receptor 2 [4] of 45 nM. Further, at Cannabinoid receptor 1 [2], the inhibition is 13%. The EC50 at Cannabinoid receptor 2 [6] came out at 140 nM.
